Reference: patent US11339110B2, “Efficient crystallization process for preparing ultrapure Treprostinil and crystal prepared therefrom” (CHIROGATE INTERNATIONAL INC., priority 2019, dated 2022)

Legend:
Format in all cases: physicochemical
[1] = Stability of Treprostinil in ethanol (UPLC tracing of ethyl ester and dimers); settings: 40±1° C.; for Treprostinil / Treprostinil dimer-1 (IT201d1) / Treprostinil dimer-2 (IT201d2) / Treprostinil ethyl ester (IT201e2): 1.00 g in 5 ml ethanol, UPLC
Procedure: (§1) Ultra Performance Liquid Chromatography (UPLC) Analysis: The UPLC spectra were collected on a Waters ACQUITY UPLC instrument. The conditions were shown as the following: The sample is diluted to 1 mg/ml by […] (v/v) acetonitrile/H2O. The column is Waters BEH C18, 1.7 μm, 2.1*150 mm. The mobile phase is 60/40 (v/v) buffer/acetonitrile from 0 to 10 min, gradient changes of buffer/acetonitrile from 60/40 to 5/95 (v/v) (curve 6) from 10 to 20 min, 5/95 (v/v) buffer/acetonitrile from 20 to 25 min, gradient changes of buffer/acetonitrile from 5/95 to 0/100 (v/v) (curve 6) from 25 to 30 min, 0/100 (v/v) buffer/acetonitrile from 30 to 35 min. Buffer solution is pH 3.0 aqueous solution adjusted by trifluoroacetic acid. The flow rate is set as 0.42 ml/min. Column temperature is set as 45° C., sample temperature is set as 25° C. Injection is 1.5 μL. Run time is 35 min. UV detector is set as 210 nm.
1.00 g Treprostinil was dissolved in 5 ml ethanol in a glass vial at room temperature to form a homogenous solution, which was stirred at 40±1° C. oil bath and periodically sampled to UPLC measurement for tracing the formation of Treprostinil ethyl ester and Treprostinil dimers.

[2] = Stability of Treprostinil stored in a glass vial at 40° C. (UPLC tracing of ethyl ester and dimers); settings: 40±1° C.; for Treprostinil / Treprostinil dimer-1 (IT201d1) / Treprostinil dimer-2 (IT201d2): no solvent, glass vial, UPLC
Procedure: as §1
0.01% g Treprostinil was placed in a glass vial and stirred at 40±1° C. oil bath and periodically sampled to UPLC measurement for tracing the formation of Treprostinil ethyl ester and Treprostinil dimers.

[3] = Filterability of Treprostinil crystal (microfiltration, pressure change during filtering); settings: 100 ml sample solution, 25±1° C., 0.22 μm hydrophilic PVDF membrane
Procedure: The filterability of sample solution is numerical estimated by the pressure changes inside the microfiltration assemblies during filtering. The microfiltration assemblies with 47 mm fritted glass, 0.22 μm hydrophilic PVDF filter membrane, 250 ml bottle, PANCHUM VP-900 dry pump, and an external pressure gauge were settled for tracing the pressure changes during filtration. The usage volume of sample solution for filtering was set as 100 ml and the filtering temperature was set as 25±1° C. for comparing the filterability of samples in a similar experimental condition.
Sample of crystalline Form I of anhydrous Treprostinil in ethyl acetate (containing 3% v/v water) was prepared from Example 5, and the concentration is about 0.05 g/ml. Sample of crystalline Form A of anhydrous Treprostinil in acetonitrile was prepared as disclosed by U.S. Pat. No. 9,278,903 Example 12, and the concentration is about 0.02 g/ml. […] The pressure changes of pure ethyl acetate, pure acetonitrile, crystalline Form I of anhydrous Treprostinil in ethyl acetate (containing 3% v/v water), crystalline Form A of anhydrous Treprostinil in acetonitrile, and monohydrated Treprostinil crystal in ethanol/water during filtration were measured and the results am shown in FIG. 10.

- Treprostinil ([1]; time 0 h): 99.88%
- Treprostinil dimer-1 (IT201d1) ([1]; time 0 h): 0.04%
- Treprostinil dimer-2 (IT201d2) ([1]; time 0 h): 0.06%
- Treprostinil ethyl ester (IT201e2) ([1]; time 0 h): 0.02%
- Treprostinil ([1]; time 2 h): 99.50%
- Treprostinil dimer-1 (IT201d1) ([1]; time 2 h): 0.04%
- Treprostinil dimer-2 (IT201d2) ([1]; time 2 h): 0.07%
- Treprostinil ethyl ester (IT201e2) ([1]; time 2 h): 0.39%
- Treprostinil ([1]; time 4 h): 99.07%
- Treprostinil dimer-1 (IT201d1) ([1]; time 4 h): 0.06%
- Treprostinil dimer-2 (IT201d2) ([1]; time 4 h): 0.06%
- Treprostinil ethyl ester (IT201e2) ([1]; time 4 h): 0.81%
- Treprostinil ([1]; time 6 h): 98.68%
- Treprostinil dimer-1 (IT201d1) ([1]; time 6 h): 0.07%
- Treprostinil dimer-2 (IT201d2) ([1]; time 6 h): 0.07%
- Treprostinil ethyl ester (IT201e2) ([1]; time 6 h): 1.18%
- Treprostinil ([1]; time 8 h): 98.15%
- Treprostinil dimer-1 (IT201d1) ([1]; time 8 h): 0.10%
- Treprostinil dimer-2 (IT201d2) ([1]; time 8 h): 0.11%
- Treprostinil ethyl ester (IT201e2) ([1]; time 8 h): 1.64%
- Treprostinil ([1]; time 10 h): 97.73%
- Treprostinil dimer-1 (IT201d1) ([1]; time 10 h): 0.12%
- Treprostinil dimer-2 (IT201d2) ([1]; time 10 h): 0.11%
- Treprostinil ethyl ester (IT201e2) ([1]; time 10 h): 2.04%
- Treprostinil ([1]; time 12 h): 97.41%
- Treprostinil dimer-1 (IT201d1) ([1]; time 12 h): 0.13%
- Treprostinil dimer-2 (IT201d2) ([1]; time 12 h): 0.09%
- Treprostinil ethyl ester (IT201e2) ([1]; time 12 h): 2.37%
- formation rate of Treprostinil dimers ([1]; dissolved in ethanol): about 0.01 % per hour
- formation rate of Treprostinil ethyl ester ([1]; dissolved in ethanol): about 0.2 % per hour
- formation rate of Treprostinil dimers ([2]; Treprostinil stored without solvent): about 0.01 % per hour
- Treprostinil ([2]; time 0 h): 99.90%
- Treprostinil dimer-1 (IT201d1) ([2]; time 0 h): 0.04%
- Treprostinil dimer-2 (IT201d2) ([2]; time 0 h): 0.06%
- Treprostinil ([2]; time 2 h): 99.89%
- Treprostinil dimer-1 (IT201d1) ([2]; time 2 h): 0.06%
- Treprostinil dimer-2 (IT201d2) ([2]; time 2 h): 0.05%
- Treprostinil ([2]; time 4 h): 99.88%
- Treprostinil dimer-1 (IT201d1) ([2]; time 4 h): 0.06%
- Treprostinil dimer-2 (IT201d2) ([2]; time 4 h): 0.06%
- Treprostinil ([2]; time 6 h): 99.84%
- Treprostinil dimer-1 (IT201d1) ([2]; time 6 h): 0.07%
- Treprostinil dimer-2 (IT201d2) ([2]; time 6 h): 0.08%
- Treprostinil ([2]; time 8 h): 99.83%
- Treprostinil dimer-1 (IT201d1) ([2]; time 8 h): 0.08%
- Treprostinil dimer-2 (IT201d2) ([2]; time 8 h): 0.09%
- Treprostinil ([2]; time 10 h): 99.79%
- Treprostinil dimer-1 (IT201d1) ([2]; time 10 h): 0.09%
- Treprostinil dimer-2 (IT201d2) ([2]; time 10 h): 0.12%
- Treprostinil ([2]; time 12 h): 99.77%
- Treprostinil dimer-1 (IT201d1) ([2]; time 12 h): 0.10%
- Treprostinil dimer-2 (IT201d2) ([2]; time 12 h): 0.13%
- finish time of filtration ([3]; 47 mm fritted glass): about 92 seconds
- solution filtered ([3]; until about 180 seconds): ~80%
SMILES: CCCCC[C@H](O)CC[C@@H]1[C@H]2Cc3cccc(OCC(=O)O)c3C[C@H]2C[C@H]1O [Treprostinil]
